Assay results as given in patent US20090220626A1 (priority 2005, published 2009).

Biological target: T1, human recombinant CYP2A6 (Homo sapiens, UniProt P11509)
T1 construct: purchased
T1 sequence (P11509 1-494): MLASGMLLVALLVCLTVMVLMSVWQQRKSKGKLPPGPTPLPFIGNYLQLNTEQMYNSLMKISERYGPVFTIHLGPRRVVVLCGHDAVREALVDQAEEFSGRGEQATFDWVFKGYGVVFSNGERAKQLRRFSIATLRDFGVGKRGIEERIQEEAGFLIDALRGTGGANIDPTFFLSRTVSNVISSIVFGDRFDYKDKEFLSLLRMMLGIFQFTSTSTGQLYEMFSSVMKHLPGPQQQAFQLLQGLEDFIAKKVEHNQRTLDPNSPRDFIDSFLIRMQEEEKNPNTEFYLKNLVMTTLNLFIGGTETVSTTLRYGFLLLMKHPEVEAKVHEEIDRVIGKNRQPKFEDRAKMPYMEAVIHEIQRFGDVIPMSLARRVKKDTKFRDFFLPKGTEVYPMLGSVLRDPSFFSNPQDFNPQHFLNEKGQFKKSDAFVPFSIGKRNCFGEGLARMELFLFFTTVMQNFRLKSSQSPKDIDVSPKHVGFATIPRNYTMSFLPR
Assay: Inhibition of nicotine metabolism in CYP2A6 Supersomes
Assay type: biochemical
Conditions: 0, 1 and 100 μM; nicotine 100 μM, 15 minutes at 37° C.
Procedure: Samples containing 0, 5, 50, or 500 μM of GSE or Capsule were prepared as described in Example 4. Each sample was incubated with CYP2A6 Supersomes (human recombinant CYP2A6 in an artificial system comprising requisite factors for sample stability and function), with 20 pmol/ml nicotine at 100 μM, for 15 minutes at 37° C.
Sample containing 0, 1 and 100 μM of cytisine, a nicotine agonist, were prepared by extraction in ddH2O pH 4.1, for 2 hours at room temperature with continuous vortexing. The extraction was done at a concentration of 47 mg/ml. The samples were incubated with CYP2A6 Supersomes with 20 pmmol/ml of nicotine at 100 μM for 15 minutes at 37° C.

## O=c1cccc2n1C[C@@H]1CNC[C@H]2C1 [cytisine]
  inhibitory effect in CYP2A6 Supersomes (FIG. 7): does not have an inhibitory effect
